The supplement of paper PMC10307832

Experiments:
Test in all cases: relative viability (nuclei count vs DMSO), 5 days (fraction); higher = more cells survive
Wnt-C59 = compound: CC1=NC=CC(=C1)C2=CC=C(C=C2)CC(=O)NC3=CC=C(C=C3)C4=CN=CC=C4 [Wnt-C59]
Outline: (§1)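 Nuclei counted with MetaXpress define viability as the ratio of treated to vehicle wells, given as a median across plates. The lung cancer cell lines were in 1536-well plates, pinned with five √10-spaced library-drug doses and imaged at 4× after 5 days and Hoechst staining. Plates passed with control CV below 25% and at least one doubling.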

Lapatinib = compound: CS(=O)(=O)CCNCc1ccc(-c2ccc3ncnc(Nc4ccc(OCc5cccc(F)c5)c(Cl)c4)c3c2)o1 [Lapatinib]
Outline: as §1

Wnt-C59 + Decitabine = compound: CC1=NC=CC(=C1)C2=CC=C(C=C2)CC(=O)NC3=CC=C(C=C3)C4=CN=CC=C4 [Wnt-C59] + Nc1ncn([C@H]2C[C@H](O)[C@@H](CO)O2)c(=O)n1 [Decitabine] (partner 2 µM)
Outline: (§2)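 Lung cancer cell lines in 1536-well plates got either a single drug or a fixed anchor-drug dose together with five library-drug doses (not always all listed) in √10 steps, by pin tool, on the day after seeding. Nuclei were counted after 5 days, and relative viability is the treated-to-vehicle ratio of nuclei counts. Values are medians of duplicate plates.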

Wnt-C59 + Navitoclax = compound: CC1=NC=CC(=C1)C2=CC=C(C=C2)CC(=O)NC3=CC=C(C=C3)C4=CN=CC=C4 [Wnt-C59] + CC1(C)CCC(c2ccc(Cl)cc2)=C(CN2CCN(c3ccc(C(=O)NS(=O)(=O)c4ccc(N[C@H](CCN5CCOCC5)CSc5ccccc5)c(S(=O)(=O)C(F)(F)F)c4)cc3)CC2)C1 [Navitoclax] (partner 0.5 µM)
Outline: as §2

| Cell Line | relative viability (Wnt-C59; 0.001 µM) | relative viability (Wnt-C59; 0.01 µM) | relative viability (Wnt-C59; 0.03162 µM) | relative viability (Wnt-C59; 0.1 µM) | relative viability (Lapatinib; 0.06325 µM) | relative viability (Lapatinib; 0.2 µM) | relative viability (Lapatinib; 0.6325 µM) | relative viability (Lapatinib; 2 µM) | relative viability (Wnt-C59 + Decitabine; first compound 0.001 µM) | relative viability (Wnt-C59 + Decitabine; first compound 0.01 µM) | relative viability (Wnt-C59 + Decitabine; first compound 0.03162 µM) | relative viability (Wnt-C59 + Decitabine; first compound 0.1 µM) | relative viability (Lapatinib; 2 µM, anchor plate) | relative viability (Wnt-C59 + Navitoclax; first compound 0.001 µM) | relative viability (Wnt-C59 + Navitoclax; first compound 0.01 µM) | relative viability (Wnt-C59 + Navitoclax; first compound 0.03162 µM) | relative viability (Wnt-C59 + Navitoclax; first compound 0.1 µM) | relative viability (Lapatinib; 0.02 µM) |
| --- | --- | --- | --- | --- | --- | --- | --- | --- | --- | --- | --- | --- | --- | --- | --- | --- | --- | --- |
| NCI-H522 | 1.04 | 0.927 | 0.994 | 0.957 | 0.746 | 0.855 | 1.01 | 0.791 | 0.707 | 0.739 | 0.782 | 0.666 |  |  |  |  |  |  |
| NCI-H1734 | 0.986 | 0.961 | 1.01 | 0.957 | 0.794 | 1.01 | 1.07 | 0.943 | 0.501 | 0.452 | 0.558 | 0.523 | 1.07 | 0.856 | 0.811 | 0.86 | 0.838 |  |
| LC-2-ad | 1.05 | 0.966 | 0.933 | 0.955 | 0.895 | 0.984 | 0.983 | 0.896 | 0.756 | 0.714 | 0.927 | 0.772 | 0.967 | 0.478 | 0.349 | 0.614 | 0.406 |  |
| ABC-1 | 0.938 | 1.01 | 1.01 | 0.952 | 0.793 | 0.939 | 1.04 | 0.912 | 1.08 | 1.14 | 1.05 | 0.938 | 1.18 |  |  |  |  | 0.721 |
| SW 1573 | 1.02 | 0.967 | 1.1 | 0.91 | 0.896 | 0.992 | 1.06 | 0.896 | 0.449 | 0.453 | 0.583 | 0.537 | 1.12 | 1.03 | 1.04 | 1.09 | 0.989 | 0.952 |
| NCI-H1299 | 1.03 | 1.03 | 1.03 | 1.01 | 1.02 | 1 | 0.99 | 1.01 |  |  |  |  | 0.95 | 1.03 | 1.06 | 1.02 | 1.02 | 0.985 |
| HCC-827 | 1.1 | 1.05 | 1.02 | 1.06 | 0.983 | 1.05 | 1 |  | 0.399 | 0.331 | 0.385 | 0.334 |  | 1.08 | 1.04 | 1.04 | 1.02 | 0.91 |
| 201T | 0.972 | 0.958 | 0.982 | 0.976 | 0.802 | 0.963 | 0.979 | 0.887 | 0.861 | 0.824 | 0.902 | 0.812 | 1.04 | 1.21 | 1.2 | 1.19 | 1.2 | 0.713 |
| HCC-15 | 1.05 | 1.01 | 1.07 | 0.981 | 0.847 | 1.06 | 1.01 | 0.919 | 0.621 | 0.607 | 0.661 | 0.606 | 0.836 | 0.799 | 0.708 | 0.7 | 0.76 |  |
| NCI-H2347 | 1.05 | 1.01 | 1.03 | 0.997 | 0.999 | 0.943 | 1.05 | 0.904 | 0.629 | 0.628 | 0.643 | 0.602 | 0.905 | 0.897 | 0.846 | 1 | 0.748 | 0.7 |
| NCI-H596 | 0.93 | 0.936 | 1.12 | 1.06 | 0.939 | 0.967 | 1.14 | 0.919 | 0.996 | 0.918 | 1.07 | 1.42 | 1.03 | 1.04 | 0.802 | 1.05 | 1.05 |  |
| LXF-289 | 0.983 | 0.993 | 0.999 | 0.976 | 0.993 | 0.96 | 0.957 | 0.869 | 0.396 | 0.369 | 0.446 | 0.386 | 0.915 | 0.999 | 0.912 | 0.929 | 0.948 | 0.923 |
| NCI-H1648 | 0.881 | 1.06 | 1.05 | 0.9 | 0.667 | 0.548 | 0.625 | 0.392 | 0.581 | 0.405 | 0.496 | 0.561 |  |  |  |  |  | 0.671 |
| NCI-H2342 | 1.01 | 1 | 0.989 | 1.03 | 0.825 | 0.798 | 0.86 | 0.856 | 0.713 | 0.787 | 0.748 | 0.692 |  |  |  |  |  | 0.742 |
| NCI-H1563 | 1.07 | 0.933 | 0.954 | 0.941 | 0.832 | 0.936 | 0.909 | 0.88 |  |  |  |  | 0.977 |  |  |  |  | 1.04 |
| EBC-1 | 1.08 | 0.995 | 1.02 | 0.904 | 0.979 | 0.945 | 0.971 |  |  |  |  |  |  | 0.378 | 0.405 | 0.431 | 0.513 | 0.993 |
| NCI-H650 | 0.886 | 0.952 | 1.03 | 0.974 | 0.912 | 0.919 | 1.04 | 0.831 | 0.346 | 0.286 | 0.308 | 0.329 | 0.926 |  |  |  |  |  |
| CAL-12T | 0.975 | 1.04 | 0.965 | 1.04 | 0.978 | 0.909 | 0.776 | 0.678 |  |  |  |  | 0.681 | 1.35 | 1.45 | 1.19 | 1.1 | 0.763 |
| NCI-H1623 | 0.948 | 0.812 | 1.02 | 0.994 | 0.649 | 0.576 | 0.728 | 0.328 |  |  |  |  |  |  |  |  |  | 0.856 |
| NCI-H2228 | 1.01 | 0.819 | 0.891 | 0.868 | 0.857 | 0.823 | 1.04 | 0.863 |  |  |  |  | 1.14 | 0.957 | 0.87 | 0.68 | 1.05 | 0.902 |
| NCI-H358 | 1.01 | 0.785 | 0.957 | 0.975 | 0.478 | 0.611 | 0.569 | 0.335 | 0.223 | 0.207 | 0.295 | 0.213 | 0.474 |  |  |  |  | 0.693 |
